Source: ChEMBL document CHEMBL5113531, “Discovery of Potent Cholinesterase Inhibition-Based Multi-Target-Directed Lead Compounds for Synaptoprotection in Alzheimer's Disease” (J Med Chem, 2022)
Calls of active or inactive are those of the source. No cut-off for these calls is given here.

Experiments:
[1] = biological target: Sigma non-opioid intracellular receptor 1 (Cavia porcellus, UniProt Q60492); assay type: cell membranes, Brain, Membrane;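 note: radioligand displacement of [3H]-(+)-pentazocine binding to sigma1 receptor in guinea pig brain membranes, read by scintillation counting after a 120 min incubation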
Chain of Sigma non-opioid intracellular receptor 1 (Q60492 whole entry): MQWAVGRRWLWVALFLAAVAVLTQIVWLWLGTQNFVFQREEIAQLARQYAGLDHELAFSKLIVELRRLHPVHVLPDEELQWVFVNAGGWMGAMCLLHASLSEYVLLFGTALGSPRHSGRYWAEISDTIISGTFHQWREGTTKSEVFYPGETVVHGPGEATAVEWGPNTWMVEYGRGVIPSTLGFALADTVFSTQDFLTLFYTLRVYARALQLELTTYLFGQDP
Description: Displacement of [3H]-(+)-pentazocine from sigma1 receptor in guinea pig brain membrane measured after 120 mins by scintillation counting method

[2] = biological target: T1, Sigma intracellular receptor 2 (Rattus norvegicus, UniProt Q5U3Y7); test: Displacement of [3H]DTG from sigma 2 receptor in rat liver membranes measured after 120 mins by scintillation counting method; assay type: cell membranes, Membrane
T1 sequence (Q5U3Y7 whole entry): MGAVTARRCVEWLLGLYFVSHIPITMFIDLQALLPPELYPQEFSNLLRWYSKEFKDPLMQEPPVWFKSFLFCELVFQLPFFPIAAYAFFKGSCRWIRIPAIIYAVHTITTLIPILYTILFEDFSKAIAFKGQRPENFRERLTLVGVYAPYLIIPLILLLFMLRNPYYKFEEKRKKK

Acetylcholinesterase = Acetylcholinesterase (Homo sapiens, UniProt P22303); test: Inhibition of human recombinant AChe using acetylthiocholine iodide as substrate incubated for 10 mins by DTNB reagent based Ellman's method
Chain of Acetylcholinesterase (P22303 whole entry): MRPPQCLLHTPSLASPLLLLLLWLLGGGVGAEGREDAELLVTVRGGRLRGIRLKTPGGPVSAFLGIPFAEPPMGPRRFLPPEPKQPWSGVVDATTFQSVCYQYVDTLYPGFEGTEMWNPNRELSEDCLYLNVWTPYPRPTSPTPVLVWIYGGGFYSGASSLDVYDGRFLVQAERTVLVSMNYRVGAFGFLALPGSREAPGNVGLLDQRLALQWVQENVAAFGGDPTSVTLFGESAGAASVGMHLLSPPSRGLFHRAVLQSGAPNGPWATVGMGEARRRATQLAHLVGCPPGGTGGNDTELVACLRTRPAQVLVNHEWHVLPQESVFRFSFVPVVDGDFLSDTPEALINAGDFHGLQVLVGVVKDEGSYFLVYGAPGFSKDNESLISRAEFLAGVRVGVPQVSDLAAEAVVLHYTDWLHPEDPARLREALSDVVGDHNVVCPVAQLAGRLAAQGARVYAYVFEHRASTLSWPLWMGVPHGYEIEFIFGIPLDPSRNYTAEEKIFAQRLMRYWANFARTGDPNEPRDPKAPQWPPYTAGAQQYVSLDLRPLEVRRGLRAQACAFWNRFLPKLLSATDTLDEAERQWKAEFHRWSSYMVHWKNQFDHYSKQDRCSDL

Cholinesterase = Cholinesterase (Homo sapiens, UniProt P06276); test: Inhibition of human recombinant BuChe using butyrylthiocholine iodide as substrate incubated for 10 mins by DTNB reagent based Ellman's method
Chain of Cholinesterase (P06276 whole entry): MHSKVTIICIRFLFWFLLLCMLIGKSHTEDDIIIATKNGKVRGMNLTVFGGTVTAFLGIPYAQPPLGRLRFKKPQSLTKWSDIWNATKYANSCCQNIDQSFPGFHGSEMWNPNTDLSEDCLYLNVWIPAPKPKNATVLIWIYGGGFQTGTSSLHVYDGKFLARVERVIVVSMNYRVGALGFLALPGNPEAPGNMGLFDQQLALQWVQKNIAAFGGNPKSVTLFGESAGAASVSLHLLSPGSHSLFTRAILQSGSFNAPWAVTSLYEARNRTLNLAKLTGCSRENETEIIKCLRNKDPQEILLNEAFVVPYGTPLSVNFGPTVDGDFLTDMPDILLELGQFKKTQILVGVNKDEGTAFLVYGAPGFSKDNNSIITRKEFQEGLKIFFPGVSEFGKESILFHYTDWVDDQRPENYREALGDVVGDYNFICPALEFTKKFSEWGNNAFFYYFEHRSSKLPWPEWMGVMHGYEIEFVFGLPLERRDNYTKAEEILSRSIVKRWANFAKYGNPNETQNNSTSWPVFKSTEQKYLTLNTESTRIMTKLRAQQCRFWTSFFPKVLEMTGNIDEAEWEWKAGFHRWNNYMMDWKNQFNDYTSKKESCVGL

[3] = biological target: Glutamate receptor ionotropic, NMDA 2B (Homo sapiens, UniProt Q13224); test: Displacement of [3H]ifenprodil from recombinant human GluN2B NMDA receptor (unknown origin) expressed in dexamethasone-induced mouse L-M(TK-) cell after 120 mins by microbeta scintillation counting method; assay type: cell-based
Chain of Glutamate receptor ionotropic, NMDA 2B (Q13224 whole entry): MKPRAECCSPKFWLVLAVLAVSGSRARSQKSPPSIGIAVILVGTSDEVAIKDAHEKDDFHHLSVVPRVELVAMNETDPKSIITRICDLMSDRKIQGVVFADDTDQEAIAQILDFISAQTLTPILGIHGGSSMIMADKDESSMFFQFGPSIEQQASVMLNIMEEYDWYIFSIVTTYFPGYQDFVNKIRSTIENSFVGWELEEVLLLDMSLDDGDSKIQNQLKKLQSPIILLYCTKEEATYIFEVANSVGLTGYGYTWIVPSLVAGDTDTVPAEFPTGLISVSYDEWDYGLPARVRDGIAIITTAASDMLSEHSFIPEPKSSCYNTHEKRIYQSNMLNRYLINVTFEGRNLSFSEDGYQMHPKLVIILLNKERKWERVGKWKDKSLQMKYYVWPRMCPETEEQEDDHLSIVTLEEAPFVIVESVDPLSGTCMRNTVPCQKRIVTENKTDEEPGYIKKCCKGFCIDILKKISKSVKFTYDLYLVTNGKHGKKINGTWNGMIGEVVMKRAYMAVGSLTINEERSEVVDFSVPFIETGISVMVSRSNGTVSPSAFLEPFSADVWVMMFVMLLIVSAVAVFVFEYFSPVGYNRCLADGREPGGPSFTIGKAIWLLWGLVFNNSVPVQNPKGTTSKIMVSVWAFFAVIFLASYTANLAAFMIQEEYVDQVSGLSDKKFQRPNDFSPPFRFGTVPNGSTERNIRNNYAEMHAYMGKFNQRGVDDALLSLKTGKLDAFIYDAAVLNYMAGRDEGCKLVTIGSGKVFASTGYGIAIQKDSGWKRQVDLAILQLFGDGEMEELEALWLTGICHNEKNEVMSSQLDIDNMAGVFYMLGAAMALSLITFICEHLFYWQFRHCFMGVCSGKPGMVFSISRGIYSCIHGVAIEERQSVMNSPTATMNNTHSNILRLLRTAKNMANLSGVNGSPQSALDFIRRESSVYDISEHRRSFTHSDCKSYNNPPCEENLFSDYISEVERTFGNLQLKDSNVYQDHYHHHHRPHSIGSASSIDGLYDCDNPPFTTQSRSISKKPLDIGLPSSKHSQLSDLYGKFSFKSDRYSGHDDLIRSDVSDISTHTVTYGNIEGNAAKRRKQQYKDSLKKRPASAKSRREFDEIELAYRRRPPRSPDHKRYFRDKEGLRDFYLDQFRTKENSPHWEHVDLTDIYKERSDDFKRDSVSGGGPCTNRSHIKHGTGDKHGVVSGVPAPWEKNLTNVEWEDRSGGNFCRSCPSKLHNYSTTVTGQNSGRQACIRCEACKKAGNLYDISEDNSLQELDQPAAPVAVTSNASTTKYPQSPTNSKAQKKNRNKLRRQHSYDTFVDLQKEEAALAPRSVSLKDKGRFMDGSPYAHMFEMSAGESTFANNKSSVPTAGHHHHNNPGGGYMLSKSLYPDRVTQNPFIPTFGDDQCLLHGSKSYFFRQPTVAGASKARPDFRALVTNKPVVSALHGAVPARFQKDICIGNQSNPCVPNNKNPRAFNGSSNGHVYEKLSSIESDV

[4] = Selectivity index, ratio of Ki for displacement of [3H]DTG from sigma 2 receptor in rat liver membranes to Ki for displacement of [3H]-(+)-pentazocine from sigma1 receptor in guinea pig brain membrane; assay type: cell membranes
SH-SY5Y [5] = test: Neuroprotective activity in H2O2 induced stress human SH-SY5Y cell model measured after 48 hrs by MTT assay; assay type: functional, cell-based
SH-SY5Y [6] = test: Neuroprotective activity in Abeta42 induced stress human SH-SY5Y cell model measured after 72 hrs by CTG luminescence assay; assay type: functional, cell-based
[7] = Cytotoxicity against HEK293 cells assessed as reduction in cell viability at 10 to 80 uM measured after 24 hrs by CTG- luminescence assay; assay type: toxicity, cell-based; conditions: human
P2X purinoceptor 7 = biological target: T2, P2X purinoceptor 7 (Homo sapiens, UniProt Q99572); test: Antagonist activity at human P2X7 receptor expressed in HEK293 cells assessed as reduction in YO-PRO-1 iodide dye uptake preincubated for 30 mins followed by YO-PRO-1 iodide addition and measured after 120 mins by fluorescence plate reader analysis; assay type: cell-based
T2 sequence (Q99572 whole entry): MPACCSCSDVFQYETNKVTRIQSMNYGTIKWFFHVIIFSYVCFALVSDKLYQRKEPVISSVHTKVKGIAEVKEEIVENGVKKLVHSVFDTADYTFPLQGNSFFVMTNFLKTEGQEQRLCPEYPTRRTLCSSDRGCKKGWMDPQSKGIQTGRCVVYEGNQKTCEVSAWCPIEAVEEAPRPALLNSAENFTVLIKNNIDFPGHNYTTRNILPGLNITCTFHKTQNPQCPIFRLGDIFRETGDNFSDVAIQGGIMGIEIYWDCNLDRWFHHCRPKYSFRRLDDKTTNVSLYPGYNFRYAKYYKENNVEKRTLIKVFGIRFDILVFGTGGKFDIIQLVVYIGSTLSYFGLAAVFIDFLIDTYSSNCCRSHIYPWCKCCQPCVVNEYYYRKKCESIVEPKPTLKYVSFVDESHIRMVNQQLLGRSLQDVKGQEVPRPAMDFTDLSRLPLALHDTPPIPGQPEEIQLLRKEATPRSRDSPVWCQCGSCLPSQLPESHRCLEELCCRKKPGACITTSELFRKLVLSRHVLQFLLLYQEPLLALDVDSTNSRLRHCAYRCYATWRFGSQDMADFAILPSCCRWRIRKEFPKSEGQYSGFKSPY

[8] = Permeability of the compound at pH 6.8 by HDM-PAMPA assay; assay type: ADME; conditions: read-out: permeability
Danio rerio [9] = species on record: Danio rerio; test: Neuroprotective activity against Abeta42 induced zebrafish AD model assessed as reversal of reduction in synaptic integrity at 10 uM measured after 5 days; assay type: functional, organism-based; conditions: time 5.0 day
[10] = Permeability of the compound across blood brain barrier at pH 7.4 incubated for 16 hrs by PAMPA assay; assay type: ADME; conditions: read-out: permeability
Danio rerio [11] = species on record: Danio rerio; test: Anti-neuroinflammatory activity in Abeta42 induced zebrafish AD model assessed as reduction in number of activated microglia relative to control; assay type: functional; parameters: scale not given: the % may be the effect or the level left
[12] = Selectivity index, ratio of Ki for displacement of [3H]-(+)-pentazocine from sigma1 receptor in guinea pig brain membrane to Ki for displacement of [3H]DTG from sigma 2 receptor in rat liver membranes; assay type: cell membranes
SH-SY5Y [13] = test: Glio-protective activity in H2O2 induced human SH-SY5Y cells measured after 48 hrs by MTT assay; assay type: functional, cell-based
SH-SY5Y [14] = test: Glio-protective activity in Abeta42 induced stress human SH-SY5Y cells measured after 72 hrs by CTG luminescence assay; assay type: functional, cell-based
[15] = Hepatotoxicity in […] cells assessed as reduction in cell viability at 10 to 80 uM measured after 24 hrs by CTG- luminescence assay; assay type: toxicity, cell-based; conditions: human

SMILES | Ki [1] | Ki [2] | IC50 (Acetylcholinesterase) | IC50 (Cholinesterase) | Ki [3] | Ratio Ki [4] | Activity (SH-SY5Y [5]) | Activity (SH-SY5Y [6]) | IC50 at 24 h [7] | IC50 (P2X purinoceptor 7) | Papp [8] | Activity (Danio rerio [9]) | Papp at 16 h [10] | Activity (Danio rerio [11]) | Ratio Ki [12] | Activity (SH-SY5Y [13]) | Activity (SH-SY5Y [14]) | IC50 at 24 h [15]
Cc1cccc2sc(NC(=O)CCN3CCN(Cc4cc(F)ccc4F)CC3)nc12 | 1000 nM | > 1000 nM | 12.6 µM | 7.66 µM | > 1000 nM |  |  |  |  |  |  |  |  |  |  |  |  | 
CC(=O)c1ccc(N2CCN(CCC(=O)Nc3nc4c(C)cccc4s3)CC2)cc1 | 1000 nM | > 1000 nM | 3.82 µM | 3.04 µM | 187 nM |  |  |  |  |  |  |  |  |  |  |  |  | 
Cc1cccc2sc(NC(=O)CCN3CCN(C(C)C)CC3)nc12 | 1300 nM | 1800 nM | 2.75 µM | 14.4 µM | > 1000 nM | 1.38 |  |  |  |  |  |  |  |  |  |  |  | 
Cc1cccc2sc(NC(=O)CCN3CCN(CCCN(C)C)CC3)nc12 | 570 nM | > 1000 nM | 0.41 µM | > 40 µM | 1800 nM | > 1.75 | Active | Active | 20.5 µM | 18.1 µM | 4.5 ×10⁻⁶ cm/s | Active | 4 ×10⁻⁶ cm/s | 33.1% |  |  |  | 
Cc1cccc2sc(NC(=O)CCN3CCN(C(C)(C)C)CC3)nc12 | 147 nM | 200 nM | 0.81 µM | > 40 µM | 476 nM | 1.36 |  |  |  |  |  |  |  |  |  |  |  | 
Cc1cccc2sc(NC(=O)CCN3CCN(Cc4cccc5ccccc45)CC3)nc12 | 1000 nM | > 1000 nM | 19.3 µM | 32.9 µM | > 1000 nM |  |  |  |  |  |  |  |  |  |  |  |  | 
Cc1cccc2sc(NC(=O)CCN3CCN(C4CCN(C)CC4)CC3)nc12 | 6000 nM | 3600 nM | 10.5 µM | > 40 µM | > 1000 nM |  |  |  |  |  |  |  |  |  | 1.66 |  |  | 
CCCCCCN1CCN(CCC(=O)Nc2nc3c(C)cccc3s2)CC1 | 238 nM | 158 nM | > 40 µM | 29.3 µM | 115 nM |  |  |  |  |  |  |  |  |  | 1.5 | Active | Active | 
Cc1cccc2sc(NC(=O)CCN3CCN(C4CCCCC4)CC3)nc12 | 24 nM | 233 nM | 10.9 µM | 3.19 µM | 213 nM | 9.71 |  |  |  |  |  | Active |  |  |  | Active | Active | 47.1 µM
CCCCN1CCN(CCC(=O)Nc2nc3c(C)cccc3s2)CC1 | 204 nM | 1200 nM | > 40 µM | 30.1 µM | 229 nM | 5.88 |  |  |  |  |  |  |  |  |  |  |  | 
Cc1cccc2sc(NC(=O)CCN3CCN(c4ccccn4)CC3)nc12 | 1000 nM | > 1000 nM | 17.2 µM | > 40 µM | > 1000 nM |  |  |  |  | 1.4 µM |  |  |  |  |  |  |  | 
